This is an account of results in paper PMC5333395, “Assessing histone demethylase inhibitors in cells: lessons learned” (Epigenetics & Chromatin, 2017).

In one data set the test system is HeLa cells. Kind of data set: Cell number in the high-content screen (DAPI staining) as measure of toxicity. Particulars: concentrations used in the IF assays.
A further data set addresses KDM5B (Homo sapiens, UniProt Q9UGL1). Kind of data set: High-content immunofluorescence (IF) assay, overexpressed full-length FLAG-tagged KDM in HeLa cells. Particulars: for EC50: HeLa cells overexpressing WT KDM5B, H3K4me3 mark, 24 h, read-out: KDM5B, in cells, EC50 by IF assay (head: IC50); for Effect on H3K4me3 mark in KDM5B IF assay, in words: HeLa cells transfected with KDM5B. Also noted: transiently transfecting the full-length FLAG-tagged demethylase (WT) into cells; expressed in transfected cells; host or cells: HeLa. Type of data set: cell-based. On the procedure:
HeLa cells (ATCC) were cultured at 37 °C and 5% CO2 in Minimal Essential Media—Eagle (Sigma-Aldrich, UK) supplemented with 10% heat-inactivated foetal calf serum (FCS) (Gibco, UK), and 1% L-glutaMAX (Gibco, UK) in T75 flasks (Sarstedt, UK) and passaged regularly with TrypLE (Life Technologies, UK) before cells reached confluence. On day 0, 7000 cells per well were plated on a 96-well clear bottom CellCarrier plate (PerkinElmer, UK). The next day the cells were transfected with Lipofectamine 3000 (ThermoFisher Scientific, UK) following the manufacturer’s instructions. Briefly, 0.1 µg of plasmid DNA (encoding for the respective demethylase) and 0.15 µL of Lipofectamine 3000 were diluted in separate tubes containing 5 µL OptiMEM. 0.15 µL of P3000 was added to the tube with the DNA. The two solutions were then mixed gently and allowed to incubate for 5 min at room temperature. Next, the DNA-lipid complex was added to the cells for 4 h at 37 °C and 5% CO2.
Compound dilutions were made in a 96-well PCR plate (Starlab, UK). The culture medium was supplemented with 0.4% DMSO so that the solvent concentration was maintained throughout. Compounds were serially diluted at a 1:2 or 1:3 dilution ratio. Next, the cell culture plate was removed from the incubator and the medium was gently aspirated and replaced with the fresh medium containing diluted compounds.
Then cells were rinsed once with PBS and blocked for 30 min at room temperature using 3% v/v foetal calf serum diluted in PBS.

Data set [1] relates to endogenous KDMs (H3K4me3 mark). The data set is described as follows: Endogenous IF assay, H3K4me3 in nontransfected HeLa cells. Particulars: 72 h, IF staining. Type of data set: cell-based, human. On the procedure:
The experimental set-up was similar to the 24-h assay except for the following modifications. Cells were cultured in OptiMEM (LifeTechnologies, UK) and supplemented with 0.5% foetal calf serum (FCS) (Gibco, UK) and 1% L-glutaMAX (Gibco, UK). HeLa cells were seeded at a density of 800 cells per well on day 0. The next day, a compound dilution plate (diluted in OptiMEM with supplements) was made and the medium from the day before replaced. The cells were incubated for 72 h at 37 °C and 5% CO2. After fixation, the immunofluorescence protocol was similar as the 24-h assay with the omission of the FLAG-tag antibodies (Table 2).

The target in another data set is T1, KDM4C (Homo sapiens, UniProt Q9H3R0).
T1 sequence (Q9H3R0 1-1056): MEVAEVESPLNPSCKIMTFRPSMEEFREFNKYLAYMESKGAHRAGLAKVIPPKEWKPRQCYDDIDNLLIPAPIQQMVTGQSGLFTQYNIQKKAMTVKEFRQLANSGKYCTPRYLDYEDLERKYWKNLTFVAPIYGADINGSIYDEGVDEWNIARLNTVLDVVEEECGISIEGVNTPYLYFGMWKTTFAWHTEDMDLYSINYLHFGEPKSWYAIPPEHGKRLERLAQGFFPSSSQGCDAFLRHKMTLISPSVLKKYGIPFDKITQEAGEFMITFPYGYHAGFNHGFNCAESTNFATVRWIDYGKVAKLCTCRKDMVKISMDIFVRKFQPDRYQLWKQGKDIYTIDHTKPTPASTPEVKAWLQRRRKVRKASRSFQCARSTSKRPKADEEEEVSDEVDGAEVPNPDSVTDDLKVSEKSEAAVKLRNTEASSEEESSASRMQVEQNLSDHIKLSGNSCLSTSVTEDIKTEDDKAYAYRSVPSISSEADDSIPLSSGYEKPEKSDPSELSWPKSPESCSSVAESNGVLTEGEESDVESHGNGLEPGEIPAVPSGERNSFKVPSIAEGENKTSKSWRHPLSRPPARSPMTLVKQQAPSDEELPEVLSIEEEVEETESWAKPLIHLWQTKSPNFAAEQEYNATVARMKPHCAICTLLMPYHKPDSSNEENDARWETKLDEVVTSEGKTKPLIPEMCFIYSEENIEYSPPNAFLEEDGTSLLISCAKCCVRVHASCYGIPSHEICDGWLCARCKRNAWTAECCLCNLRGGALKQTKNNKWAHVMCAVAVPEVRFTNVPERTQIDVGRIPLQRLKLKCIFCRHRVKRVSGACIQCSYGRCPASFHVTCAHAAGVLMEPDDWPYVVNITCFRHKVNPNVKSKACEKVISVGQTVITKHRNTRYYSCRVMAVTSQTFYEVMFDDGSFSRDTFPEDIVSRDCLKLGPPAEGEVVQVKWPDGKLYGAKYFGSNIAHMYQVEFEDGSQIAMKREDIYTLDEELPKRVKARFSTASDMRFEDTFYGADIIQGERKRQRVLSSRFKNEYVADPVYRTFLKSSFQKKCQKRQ
Kind of data set: AlphaScreen in vitro demethylase assay. Type of data set: biochemical. Particulars: AlphaScreen; IC50 ± SD (number of replicates); read-out: KDM4C IC50, in vitro. The method, then:
IC50 values were determined as previously described. The following amendments were made to the protocol for carrying out 2-OG competition assays.
For orientation: Bead proximity is the source of the signal in Alpha formats.

Chain of KDM5B (Q9UGL1 whole entry): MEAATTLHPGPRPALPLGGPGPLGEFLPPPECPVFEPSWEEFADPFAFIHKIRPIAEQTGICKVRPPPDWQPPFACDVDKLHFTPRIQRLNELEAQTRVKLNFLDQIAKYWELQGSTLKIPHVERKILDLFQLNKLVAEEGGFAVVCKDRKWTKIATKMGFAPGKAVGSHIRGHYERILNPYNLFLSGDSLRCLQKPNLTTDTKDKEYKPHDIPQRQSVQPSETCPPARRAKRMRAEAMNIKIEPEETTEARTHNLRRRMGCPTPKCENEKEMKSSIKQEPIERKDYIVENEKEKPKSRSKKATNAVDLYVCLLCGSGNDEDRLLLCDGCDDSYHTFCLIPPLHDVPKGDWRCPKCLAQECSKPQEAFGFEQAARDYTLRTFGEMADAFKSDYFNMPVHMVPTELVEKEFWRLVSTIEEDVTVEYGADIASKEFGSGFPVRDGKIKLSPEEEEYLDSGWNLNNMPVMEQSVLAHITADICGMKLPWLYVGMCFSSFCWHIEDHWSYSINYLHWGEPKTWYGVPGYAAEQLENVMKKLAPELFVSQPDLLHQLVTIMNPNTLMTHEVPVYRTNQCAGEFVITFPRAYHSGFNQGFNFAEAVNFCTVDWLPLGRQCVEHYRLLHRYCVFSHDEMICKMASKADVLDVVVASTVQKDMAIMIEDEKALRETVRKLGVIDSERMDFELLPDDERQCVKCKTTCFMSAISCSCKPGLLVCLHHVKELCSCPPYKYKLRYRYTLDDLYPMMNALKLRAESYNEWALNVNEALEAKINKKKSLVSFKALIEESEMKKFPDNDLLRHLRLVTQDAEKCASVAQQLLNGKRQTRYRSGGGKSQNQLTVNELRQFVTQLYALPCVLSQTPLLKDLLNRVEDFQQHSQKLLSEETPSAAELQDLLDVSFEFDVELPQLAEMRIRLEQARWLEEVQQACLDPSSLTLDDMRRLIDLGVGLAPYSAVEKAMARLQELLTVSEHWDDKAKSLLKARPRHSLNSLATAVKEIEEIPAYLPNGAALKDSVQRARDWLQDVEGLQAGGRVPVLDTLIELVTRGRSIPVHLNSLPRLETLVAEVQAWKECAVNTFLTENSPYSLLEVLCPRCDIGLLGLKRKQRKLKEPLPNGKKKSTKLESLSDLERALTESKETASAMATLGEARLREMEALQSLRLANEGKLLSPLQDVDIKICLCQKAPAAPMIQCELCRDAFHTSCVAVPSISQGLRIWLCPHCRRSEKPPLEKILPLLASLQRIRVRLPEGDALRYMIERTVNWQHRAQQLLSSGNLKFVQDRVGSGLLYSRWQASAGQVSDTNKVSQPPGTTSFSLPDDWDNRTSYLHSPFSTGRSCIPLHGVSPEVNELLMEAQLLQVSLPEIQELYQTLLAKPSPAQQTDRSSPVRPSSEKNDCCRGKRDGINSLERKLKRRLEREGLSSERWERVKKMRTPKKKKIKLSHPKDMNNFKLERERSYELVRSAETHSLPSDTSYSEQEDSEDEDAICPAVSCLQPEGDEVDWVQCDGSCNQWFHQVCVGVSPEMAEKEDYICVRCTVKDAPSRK

By EC50 is commonly meant the concentration giving half of the maximal effect. For the compound `O=c1[nH]cnc2c(-n3cc(CCN4CCC(c5cccc(Cl)c5)CC4)cn3)cccc12` [CCT366293, 8-(4-(2-(4-(3-Chlorophenyl)piperidin-1-yl)ethyl)-1H-pyrazol-1-yl)quinazolin-4(3H)-one], the “Toxicity as measured by cell count (number of cells, DAPI staining)” value (“Toxicity as measured by cell count” below) in the data set with HeLa cells is “No cytotoxicity was observed”. In addition, on KDM5B, the EC50 is > 100 µM and the “Effect on H3K4me3 mark in KDM5B IF assay, in words” value is given as “no effect”.
Taken in the same sequence, the figures for `Clc1ccc(N/N=C(\c2ccccc2)c2ccccn2)nc1` [JIB-04 E] were “only observed cell toxicity at high concentrations”, 3 µM and “dose-dependent increase of H3K4me3”.
A word on the IC50: it is the concentration needed to halve the response being measured. Turning to `CCN(CCN(C)C)C(=O)CNCc1cc(C(=O)O)ccn1` [KDOAM-20], the EC50 in data set [1] (read-out: EC50, endogenous H3K4me3 levels) was ~50 µM; at KDM5B, 20 µM. Also, the “Toxicity as measured by cell count” value with HeLa cells is on record as “no toxicity”. In addition, the IC50 at KDM4C stood at 0.19 ± 0.081 µM.
For the compound `CCOC(=O)c1ccnc(CNCC(=O)N(CC)CCN(C)C)c1` [KDOAM-21], the “EC50, endogenous H3K4me3 levels” value in data set [1] is listed as “sub-μM potency”. In addition, the “Toxicity as measured by cell count” value in the data set on HeLa cells is recorded as “no toxicity”. Further, the IC50 on KDM4C stood at 2.8 ± 1.3 µM. Also, the EC50 at KDM5B was 0.7 µM.
For `CCN(CCN(C)C)C(=O)CNCc1cncc(C(N)=O)c1` [KDOAM-32], in data set [1], the “EC50, endogenous H3K4me3 levels” value is given as “no inhibition observed”. Besides, the EC50 on KDM5B was > 100 µM.
CPI-455: the “Toxicity as measured by cell count” value in the data set on HeLa cells is recorded as “No reduction in cell numbers was observed”. Further, at KDM4C, the concentration for half-maximal inhibition (IC50) is 11 ± 2.3 µM. Besides, on KDM5B, the EC50 turned out to be 60 µM and the “Effect on H3K4me3 mark in KDM5B IF assay, in words” value was “dose-dependent increase of the H3K4me3 mark”.
